# Laboratory results reported in PMC11173194, “Optimizing Antimicrobial Peptide Design: Integration of Cell-Penetrating Peptides, Amyloidogenic Fragments, and Amino Acid Residue Modifications” (International Journal of Molecular Sciences, 2024).
# Assays:
# S. aureus 129B strain = assay: Antibacterial activity in liquid medium; type: cell-based, Staphylococcus aureus; conditions: for Peptide Efficacy in Liquid Medium after 24 h of Incubation: S. aureus 129B strain (clinical isolate), Mueller–Hinton Broth, two independent experiments
# Procedure: (§1) We utilized various strains of microorganisms in this study. […] Bacillus cereus strain IP 5832 (susceptible), Pseudomonas aeruginosa strains ATCC 28753 (susceptible) and 2943 (resistant), and Escherichia coli strains K12 and MG1655 (both susceptible) were also utilized in our experiments.
# (§2) S. aureus (strains 209P and 129B), MRSA (strains ATCC 43300 and SA 180-F), B. cereus (strain IP 5832), P. aeruginosa (strains ATCC 28753 and 2943), and E. coli (strains K12 and MG1655) were cultured on Mueller–Hinton Broth (MHB).
# (§3) Statistical analysis was conducted using the SigmaPlot v15 software package (SPSS Inc., Chicago, IL, USA). Each experiment was repeated at least twice (n ≥ 2). Data are presented as mean ± standard deviation (M ± SD). Statistical significance was assessed using Student’s t-test and analysis of variance (ANOVA) in the tests of the antibacterial activity of the peptides. The confidence interval value of 0.95 was used, corresponding to an alpha value of 0.05. Statistically significant decreases in optical density compared to the negative control were considered for specific peptide concentrations with p-values below 0.05.
# S. aureus 209P strain = assay: Antibacterial activity in liquid medium; type: cell-based, Staphylococcus aureus; conditions: for Peptide Efficacy in Liquid Medium after 15 h of Incubation: S. aureus 209P strain, Mueller–Hinton Broth, two independent experiments; for concentration at which inhibition of bacterial growth was observed (Figure 1): S. aureus 209P, liquid medium, 15 h, gentamicin positive control
# Procedure: as §1, §2, §3
# MRSA ATCC 43300 strain = assay: Antibacterial activity in liquid medium; type: cell-based, methicillin-resistant Staphylococcus aureus; conditions: for Peptide Efficacy in Liquid Medium after 15 h of Incubation: MRSA ATCC 43300 strain, Mueller–Hinton Broth, two independent experiments
# Procedure: as §1, §2, §3
# MRSA SA 180-F strain = assay: Antibacterial activity in liquid medium; type: cell-based, methicillin-resistant Staphylococcus aureus; conditions: MRSA SA 180-F strain (clinical isolate), Mueller–Hinton Broth, two independent experiments
# Procedure: as §1, §2, §3
# [1] = tested on: P. aeruginosa 2943 strain; assay: Antibacterial activity in liquid medium; type: cell-based, Pseudomonas aeruginosa; conditions: for antimicrobial effect compared to the negative control (Figure 3): P. aeruginosa 2943, liquid medium, 24 h; for Peptide Efficacy in Liquid Medium after 24 h of Incubation: P. aeruginosa 2943 strain (resistant), Mueller–Hinton Broth, two independent experiments
# Procedure: as §1, §2, §3
# P. aeruginosa ATCC 28753 = assay: Antibacterial activity in liquid medium; type: cell-based, Pseudomonas aeruginosa; conditions: for Peptide Efficacy in Liquid Medium after 15 h of Incubation: Mueller–Hinton Broth, two independent experiments; for concentrations of peptides suppressing the growth of bacteria compared to the negative control (Figure 3): liquid medium, 15 h
# Procedure: as §1, §2, §3
# E. coli K12 strain = assay: Antibacterial activity in liquid medium; type: cell-based, Escherichia coli; conditions: for concentration with antimicrobial activity / effective concentration (text to Figure 4): E. coli K12, liquid medium, 15 h; for Peptide Efficacy in Liquid Medium after 15 h of Incubation: E. coli K12 strain, Mueller–Hinton Broth, two independent experiments
# Procedure: as §1, §2, §3
# E. coli MG1655 strain = assay: Antibacterial activity in liquid medium; type: cell-based, Escherichia coli; conditions: for concentration with antimicrobial activity / effective concentration (text to Figure 4): E. coli MG1655, liquid medium, 24 h; for Peptide Efficacy in Liquid Medium after 24 h of Incubation: E. coli MG1655 strain, Mueller–Hinton Broth, two independent experiments
# Procedure: as §1, §2, §3
# human skin fibroblasts = assay: Toxicity of peptides against human fibroblasts (calcein AM / propidium iodide; cell cycle); type: cell-based; conditions: both with and without pre-incubation, 96 h; for number of dead cells: calcein AM / propidium iodide
# Procedure: The peptides were pre-incubated for 12 h in DMEM medium without serum in a CO2 incubator. After the incubation period, serum was added to the medium to a final concentration of 10%, and the preparation was added dropwise onto the cells. The cytotoxic effects of peptides against eukaryotic cells (human fibroblasts and BT474) were subsequently assessed using the same method as in the previous study [62].
# BT474 cells = conditions: 100 µg/mL, both with and without pre-incubation, 96 h
# Procedure: To analyze the cytotoxic effect, cells after incubation with peptides were stained with calcein AM (stains living cells) and propidium iodide (stains dead cells).
# Analysis of the cytostatic effect was performed on the basis of the distribution of cells by phases of the cell cycle and mitotic activity.
# The peptides were pre-incubated for 12 h in DMEM medium without serum in a CO2 incubator. After the incubation period, serum was added to the medium to a final concentration of 10%, and the preparation was added dropwise onto the cells. The cytotoxic effects of peptides against eukaryotic cells (human fibroblasts and BT474) were subsequently assessed using the same method as in the previous study.
# [2] = POPE:POPG bilayer; 0.1 M KCl, pH 7.4; subthreshold peptide concentrations (20 µg/mL)
# Source text: The effects of peptide R44K^S on the ionic permeability of planar lipid bilayers composed of an equimolar mixture of POPE and POPG mimicking target bacterial cell membranes was examined. The example of the time dependence of the transmembrane current produced by a subsequent one-side addition of R44K^S into the bathing solution (0.1 M KCl, pH 7.4) is shown in Figure 7A.
# The method of recording the transmembrane current under voltage-clamp conditions was used to study the effect of a synthetic peptide on a lipid membrane. Planar lipid bilayers were formed by the Montal and Mueller technique on an aperture of 50 µm diameter in a 10 µm thick Teflon film separating two compartments of Teflon chambers. Each compartment contained 0.1 M KCl and 10 mM HEPES at pH 7.4. Hexadecane was used for the aperture pretreatment. […]
# Ag/AgCl electrodes with 1.5% agarose/2 M KCl bridges were used to apply the transmembrane voltage (V) and measure the current flowing through the bilayer (I). […] Data were digitized by a Digidata 1550A and analyzed using pClamp 10.7 (Molecular Devices, LLC, Orleans Drive, Sunnyvale, CA, USA) and Origin 7.0 (OriginLab Corporation, Northampton, MA, USA). […]
# B. cereus IP 5832 strain = assay: Antibacterial activity in liquid medium; type: cell-based, Bacillus cereus; conditions: Mueller–Hinton Broth, two independent experiments
# Procedure: as §1, §2, §3
# [3] = tested on: S. aureus (strain 209P), MRSA (strain ATCC 43300), B. cereus (strain IP 5832), P. aeruginosa (strain ATCC 28753), and E. coli (strain K12); assay: Antimicrobial effect compared with gentamicin, panel of Figure 5; type: cell-based; conditions: Figure 5 panel; Mueller–Hinton Broth; 15 h; two independent experiments
# Procedure: The antibiotic gentamicin sulfate was used as a positive control. The concentration of gentamicin was 100 µM. Cell cultures in a liquid medium (Mueller–Hinton Broth) served as a negative control. Error bars show standard errors. Number of independent experiments is two. #—for significant differences with negative control p < 0.05.
# as §2, §3
Substance,Peptide Efficacy in Liquid Medium after 24 h of Incubation (S. aureus 129B strain),Peptide Efficacy in Liquid Medium after 15 h of Incubation (S. aureus 209P strain),concentration at which inhibition of bacterial growth was observed (Figure 1) (S. aureus 209P strain),Peptide Efficacy in Liquid Medium after 15 h of Incubation (MRSA ATCC 43300 strain),Peptide Efficacy in Liquid Medium after 24 h of Incubation (MRSA SA 180-F strain),antimicrobial effect compared to the negative control (Figure 3) [1],Peptide Efficacy in Liquid Medium after 24 h of Incubation [1],Peptide Efficacy in Liquid Medium after 15 h of Incubation (P. aeruginosa ATCC 28753),concentrations of peptides suppressing the growth of bacteria compared to the negative control (Figure 3) (P. aeruginosa ATCC 28753),concentration with antimicrobial activity / effective concentration (text to Figure 4) (E. coli K12 strain),Peptide Efficacy in Liquid Medium after 15 h of Incubation (E. coli K12 strain),concentration with antimicrobial activity / effective concentration (text to Figure 4) (E. coli MG1655 strain),Peptide Efficacy in Liquid Medium after 24 h of Incubation (E. coli MG1655 strain),cytotoxic effect (human skin fibroblasts; 100 µg/mL),also measured
VVVHINGGKFGGGGSRQIKIWFQNRRMKWKK [V31K^S],">276.8 µM, 129B strain",">12 µM, 209P strain",not demonstrated,">12 µM, ATCC 43300 strain",">276.8 µM, SA 180-F strain",did not exhibit antimicrobial effects,">276.8 µM, 2943 strain",">12 µM, ATCC 28753",6 µM,did not exhibit antimicrobial activity,">12 µM, K12 strain",276.8 µM,">276.8 µM, MG1655 strain",no cytotoxic effect,"complete inhibition of bacterial growth (Figure 1) (S. aureus 129B strain; S. aureus 129B, liquid medium, 24 h): not demonstrated; cytotoxic effect (BT474 cells): no cytotoxic effect"
"RKKRRQRRRGGGGVVVHINGGKFGGGGSRQIKIWFQNRRMKWKK [R44K^S, Unmodified peptide: TAT fragment, amyloidogenic fragment and Antp fragment; commercial product]",">194.4 µM, 129B strain",6 µM,6 to 12 µM,12 µM,">194.4 µM, SA 180-F strain",did not exhibit antimicrobial effects,">194.4 µM, 2943 strain",3 µM,1.5 µM,6 µM,6 µM,19.4 µM,194.4 µM,no cytotoxic effect,"concentration at which inhibitory effect / complete suppression of growth was observed (text to Figure 2) (MRSA ATCC 43300 strain; MRSA ATCC 43300, liquid medium, 15 h): 12 µM; single pore conductance [2]: 10–30 pS"
"RKKRRQRRRGG-Sar-GVVVHI-X-GGKF-NH2 [R23F^S*, Peptide with TAT fragment and modified amyloidogenic fragment of S. aureus S1 protein, C-terminal amide]",379.8 µM,6 µM,,12 µM,379.8 µM,,38 µM,6 µM,,,3 µM,,379.8 µM,,Peptide Efficacy in Liquid Medium after 15 h of Incubation (B. cereus IP 5832 strain): 3 µM; concentrations with antimicrobial effect comparable to gentamicin (100 μM) against all bacteria [3]: 24 to 48 µM; number of dead cells (human skin fibroblasts; 50 µg/mL): 11 ± 3%; number of dead cells (human skin fibroblasts; 100 µg/mL): 12 ± 3%
